One data set has as its system T cells (patient PBMCs). Briefly: T-cell proliferation assay (3H-thymidine) of patient PBMC/T cells with hTERT peptides or transfected DC. The class given is cell-based, human. To be noted: for response of clinical non-responders: GV1001-vaccinated; for immunological responses in clinical responders: patients responding / 7 clinical responders; for immunological responses in clinical non-responders: patients responding / 10 clinical non-responders. The procedure:
FIG. 1 is a bar graph summarising hTERT T-cell responses detected in pancreas cancer patient vaccinated with DC transfected with hTERT mRNA. In samples from various time points throughout a vaccination schedule, T-cell responses against 24 overlapping hTERT 15-mer peptides were detected. Proliferation in response to peptide-loaded PBMC was measured by ^3H-thymidine incorporation. A stimulation index of >2 is considered an immune response.
Peripheral blood mononuclear cells (PBMCs) were obtained prior to the four standard vaccinations, after 5 weeks and after 12 weeks. PBMCs were also obtained before each monthly booster vaccination. The PBMCs were isolated and frozen as previously described (Kyte et al, 2005). Thawed PBMCs were stimulated once in vitro with tDCs (not with mockDCs) and cultured and then tested in T cell proliferation assays (^3H Thymidine) as previously described (Kyte et al 2006). The T cells were tested in triplicates. Irradiated tDCs and mock-transfected DC controls (mockDCs) were used or PBMC with or without hTERT peptide as APCs. Negative controls with T cells only were included.
PBMCs from various time points were stimulated with an overlapping hTERT 15-mer peptide library or a 30-mer hTERT peptide, all from ProImmune and then tested in proliferation assays as above using irradiated PBMCs as APCs as described in (Bernhardt et al 2006).
T-cell responses to a hTERT peptide library (including the polypeptides from Table 1) were determined for T-cells from 5 patients in addition to the patients reported in Examples 1 and 2. The methods were the same as previously described in Example 1 or in Bernhardt et al 2006. In brief, PBMCs from various time points during vaccination were stimulated with the overlapping hTERT peptide library prior to testing for specific T-cell responses in proliferation assays.
The proliferative T-cell responses of each patient to a series of peptides were then determined as explained in Example 1. The results are tabulated in Table 5 and are shown graphically in FIG. 14 in which the peptide designations are referenced in Table 6 (the results for peptides 726 and GV1001 are shown only for comparison).
Four patients who were clinical non-responders following a lung cancer diagnosis and a GV1001 (SEQ ID NO. 10) peptide vaccination were studied. These patients were all stage IV lung cancer patients vaccinated with GV1001. […] The proliferative T-cell responses of each patient to a series of peptides were determined in the same manner as in Example 1, at one time point. The peak response of each patient during the study period to peptide GV1001 is also shown which confirms that each patient responded immunologically to GV1001 vaccination.
Six patients who were clinical non-responders following a melanoma cancer diagnosis and a GV1001 peptide (SEQ ID NO. 10) vaccination were studied. These patients were all stage IV melanoma patients and included in the same GV1001 vaccination trial as melanoma patients P7 and P8 who were long term survivors (see Example 6). […] Five of the patients also experienced progressive disease and one patient, designated Melanoma P3, experienced some stabilization of the disease but still had short survival. The proliferative T-cell responses of each patient to a series of peptides were determined in the same manner as in Example 1, at one time point. The peak response of each patient during the study period to peptide GV1001 is also shown which confirms that each patient responded immunologically to GV1001 vaccination.

Data set [1] has as its system CD8+ T cells (patient PBMCs). The data set is described as follows: Pentamer staining of hTERT-specific CD8+ T cells by flow cytometry. The class given is cell-based, human. To be noted: for peptide-specific CD8+ T lymphocytes detected by pentamer: HLA-B7+ lung cancer patient in complete remission after GV1001 vaccination, up to six years (FIG. 6). (Flow cytometry measures light scatter and fluorescence of single cells or particles in a stream.)

For a further data set, the system named is CD4+ T-cell clones. Briefly: Peptide-specific T-cell clones from patients (HLA class II allele, peptide titration). The class given is cell-based, human. An excerpt:
A value above 2 is considered as a positive response.
T-cell clones specific for all of the peptides of 15- or 30-amino acids shown in Table 1 have also been obtained from patients. […] This is important in order to be able to induce strong immune response in vivo where peptide concentrations are lower.
In addition, the 15- and 30-mer peptides listed in Table 1 show reactivity in nearly all patients tested, which means they are promiscuous with respect to the HLA class II alleles on which they are presented and that they are applicable to nearly the whole population without any need for HLA-screening (see Table 2).

The subject of the next data set is pancreas cancer patient. The data set is described as follows: Clinical course of pancreas cancer patient. The class given is in vivo, human.
Setting [2] is: four stage IV lung cancer patients.
Setting [3] is: patient Colon ca P1, GV1001-vaccinated, clinical responder.
Where [4] appears, read: patient Lung ca P1, GV1001-vaccinated, clinical non-responder, one time point.
Setting [5] is: patient Lung ca P2, GV1001-vaccinated, clinical non-responder, one time point.
Where [6] appears, read: patient Lung ca P3, GV1001-vaccinated, clinical non-responder, one time point.
Setting [7] is: patient Lung ca P4, GV1001-vaccinated, clinical non-responder, one time point.
Setting [8] is: patient Lung ca P5, GV1001-vaccinated, clinical responder.
The mark [9] stands for this setting: patient Lung ca P6, DC/hTERT mRNA-vaccinated, clinical responder, high background.
[10] abbreviates: patient Melanoma P1, GV1001-vaccinated, clinical non-responder, one time point.
Setting [11] is: patient Melanoma P2, GV1001-vaccinated, clinical non-responder, one time point.
Setting [12] is: patient Melanoma P3, GV1001-vaccinated, clinical non-responder, one time point.
[13] abbreviates: patient Melanoma P4, GV1001-vaccinated, clinical non-responder, one time point.
The mark [14] stands for this setting: patient Melanoma P5, GV1001-vaccinated, clinical non-responder, one time point.
The mark [15] stands for this setting: patient Melanoma P6, GV1001-vaccinated, clinical non-responder, one time point.
Setting [16] is: patient Melanoma P7, GV1001-vaccinated, clinical responder.
Where [17] appears, read: patient Melanoma P8, GV1001-vaccinated, clinical responder.
[18] abbreviates: patient Melanoma P9, non-vaccinated, spontaneous response.
The mark [19] stands for this setting: patient Pancreas ca P1, DC/hTERT mRNA-vaccinated, clinical responder, high background.
[20] abbreviates: HLA class II allele DR*04, 3 patients, malignant melanoma.

Experimental for pancreas cancer patient: The vaccine consisted of 5×10^6 autologous monocyte-derived dendritic cells loaded with hTERT mRNA. The patient received 4 weekly injections followed by monthly booster injections.
Adverse events were recorded and graded according to the NCI-common toxicity criteria, as previously reported (Kyte et al, 2006 Gene therapy). […] Objective tumour response was assessed by clinical examination and CT scans prior to start of vaccination and every 3 months during the vaccination. The tumour response was classified according to the Response Evaluation Criteria in Solid Tumors (RECIST) (Therasse P et al, 2000).

“PGLLGASVLGLDDIH (listed as Homo sapiens) [SEQ ID NO. 55]”: the “proliferative T-cell response (detected or not)” value in the data set with T cells (patient PBMCs) (pancreas cancer patient vaccinated with DC/hTERT mRNA) is reported as “recognized by T cells”.
Consider “AERLTSRVKALFSVL (listed as Homo sapiens) [SEQ ID NO. 9]”, for which the “response of clinical non-responders” value with T cells (patient PBMCs) (setting [2]) and in the data set on T cells (patient PBMCs) (six stage IV melanoma patients) was “very low or no response” throughout. Further, the “proliferative T-cell response (SI)” value was determined as 13.9 in the data set on T cells (patient PBMCs) (setting [3]); 0.8 in the data set on T cells (patient PBMCs) (setting [4]); 0.6 in the data set with T cells (patient PBMCs) (setting [5]); 0.8 in the data set on T cells (patient PBMCs) (setting [6]); 0.7 with T cells (patient PBMCs) (setting [7]); 1.2 in the data set on T cells (patient PBMCs) (setting [8]). The “proliferative T-cell response (SI)” value in the data set with T cells (patient PBMCs) (setting [9]) stood at 0.7; in the data set with T cells (patient PBMCs) (setting [10]), 0.8; in the data set with T cells (patient PBMCs) (setting [11]) it was 0.6; with T cells (patient PBMCs) (setting [12]), 0.5; with T cells (patient PBMCs) (setting [13]) it was 0.8; in the data set on T cells (patient PBMCs) (setting [14]), 0.9. Also, the “proliferative T-cell response (SI)” value was determined as 1.3 in the data set on T cells (patient PBMCs) (setting [15]); 3.2 in the data set on T cells (patient PBMCs) (setting [16]); 1 in the data set with T cells (patient PBMCs) (setting [17]); 5.9 in the data set with T cells (patient PBMCs) (setting [18]); 1 with T cells (patient PBMCs) (setting [19]). Moreover, the “immunological responses in clinical responders” value with T cells (patient PBMCs) is recorded as 3/7. For the same compound, the “immunological responses in clinical non-responders” value with T cells (patient PBMCs) is on record as 0/10. For the same compound, the “patients with CTL responses shown by pentamer analysis” value in data set [1] (patients of Examples 1 to 8) is recorded as 3.
For the compound “RPGLLGASVL (listed as Homo sapiens) [SEQ ID NO. 25]”, the “peptide-specific CD8+ T lymphocytes detected by pentamer” value in data set [1] was “second minor CTL population”.
Turning to “RLTSRVKALFSVLNY (listed as Homo sapiens) [SEQ ID NO. 8]”, the “response of clinical non-responders” value in the data set with T cells (patient PBMCs) (setting [2]) and in the data set on T cells (patient PBMCs) (six stage IV melanoma patients) was “very low or no response” throughout. For the same compound, the “proliferative T-cell response (SI)” value is on record as 2.6 with T cells (patient PBMCs) (setting [3]); 1.2 with T cells (patient PBMCs) (setting [4]); 0.9 with T cells (patient PBMCs) (setting [5]); 1.1 in the data set with T cells (patient PBMCs) (setting [6]); 1.1 in the data set on T cells (patient PBMCs) (setting [7]); 0.8 in the data set with T cells (patient PBMCs) (setting [8]). In addition, the “proliferative T-cell response (SI)” value in the data set with T cells (patient PBMCs) (setting [9]) was determined as 2.1; in the data set with T cells (patient PBMCs) (setting [10]), 0.9; with T cells (patient PBMCs) (setting [11]), 0.8; in the data set on T cells (patient PBMCs) (setting [12]), 0.6; in the data set on T cells (patient PBMCs) (setting [13]), 1.1; in the data set with T cells (patient PBMCs) (setting [14]), 7.1. For the same compound, the “proliferative T-cell response (SI)” value in the data set with T cells (patient PBMCs) (setting [15]) is 0.8; with T cells (patient PBMCs) (setting [16]), 4.8; in the data set with T cells (patient PBMCs) (setting [17]), 6.3; in the data set with T cells (patient PBMCs) (setting [18]) it was 4.2; with T cells (patient PBMCs) (setting [19]), 1.3. Also, in the data set with CD4+ T-cell clones (setting [20]), the Specific clones was found to be 3.
Take `Nc1ccn([C@@H]2O[C@H](CO)[C@@H](O)C2(F)F)c(=O)n1` [gemcitabine]: the adverse effects result in the data set on pancreas cancer patient (after 5 months) is listed as “suspended due to adverse effects”. Besides, in the data set on pancreas cancer patient (before DC vaccination), the Clinical response entry is “disease stabilization”.
“RPALLTSRL (listed as Homo sapiens) [SEQ ID NO. 5]”: in data set [1], the “peptide-specific CD8+ T lymphocytes detected by pentamer” value is reported as “stable CD8+ T cell population”.
Take “RTFVLRVRAQDPPPE (listed as Homo sapiens) [SEQ ID NO. 7]”: the “response of clinical non-responders” value with T cells (patient PBMCs) (setting [2]) and in the data set on T cells (patient PBMCs) (six stage IV melanoma patients) was “very low or no response” each time. For the same compound, the “proliferative T-cell response (SI)” value with T cells (patient PBMCs) (setting [3]) amounted to 20.6; in the data set with T cells (patient PBMCs) (setting [4]) it was 1.3; in the data set on T cells (patient PBMCs) (setting [5]) it was 1; in the data set on T cells (patient PBMCs) (setting [6]), 1.2; in the data set with T cells (patient PBMCs) (setting [7]) it was 0.4; in the data set on T cells (patient PBMCs) (setting [8]) it was 1.1. The “proliferative T-cell response (SI)” value came out at 0.8 in the data set with T cells (patient PBMCs) (setting [9]); 0.9 in the data set on T cells (patient PBMCs) (setting [10]); 1 in the data set on T cells (patient PBMCs) (setting [11]); 0.7 in the data set with T cells (patient PBMCs) (setting [12]); 1 in the data set on T cells (patient PBMCs) (setting [13]); 1.2 with T cells (patient PBMCs) (setting [14]). In addition, the “proliferative T-cell response (SI)” value with T cells (patient PBMCs) (setting [15]) was 4.8; in the data set with T cells (patient PBMCs) (setting [16]), 4.9; in the data set on T cells (patient PBMCs) (setting [17]), 2.8; in the data set with T cells (patient PBMCs) (setting [18]) it was 5.7; with T cells (patient PBMCs) (setting [19]), 2.5. Also, the “immunological responses in clinical responders” value in the data set on T cells (patient PBMCs) is listed as 5/7. Besides, in the data set on T cells (patient PBMCs), the “immunological responses in clinical non-responders” value is 1/10.
Regarding “SVLNYERARRPGLLG (listed as Homo sapiens) [SEQ ID NO. 2]”, the Specific clones entry was “T-cell lines” in the data set on CD4+ T-cell clones (HLA class II allele DR*01, 2 patients, malignant melanoma); 3 in the data set on CD4+ T-cell clones (setting [20]); greater than 85 in the data set on CD4+ T-cell clones (HLA class II allele DR*08, 2 patients, malignant melanoma and lung cancer).

The values are drawn from patent publication US11998595B2, “Telomerase polypeptide vaccine for treating cancer” (Ultimovacs AS, priority 2010, dated 2024).
